The numbers were not newly measured in paper PMC3372989, “Conformational Differences between Active Angiotensins and Their Inactive Precursors” (Acta Naturae, 2012), which cites them from elsewhere.

One data set concerns receptors of Ang2. The conditions noted are these: ref [4]. The source says: The oft-cited example of the structural differences between peptides found in their protein precursor and peptides in a free state is human angiotensinogen and its metabolites; i.e. , angiotensins 1, 2 and 3. Angiotensin 1 (Ang1) is a prohormone that consists of 10 amino acid residues and is produced from angiotensinogen as a result of the cleavage of the N-terminal peptide. […] Angiotensin 2 (Ang2) differs from angiotensin 1 by the absence of two C-terminal amino acid resi ...

The conditions of data set [1]: background statement, no reference printed directly at the statement.
The conditions of data set [2]: doses needed for immunization (10–50 µg/mouse), even intramuscular and subcutaneous injections. The source says:
The human and mouse angiotensins 1, as well as angiotensins 2 and 3, have identical amino acid sequences. […] Altogether, it makes angiotensins extremely inconvenient immunogens; however, their conjugation with Hsp70, an adjuvant protein from M. tuberculosis, allowed to overcome the immunological tolerance and to eliminate the toxicity. As a result, we ob ...

As for angiotensin 1, in the data set on receptors of Ang2, the “binding to the receptors of Ang2” value is recorded as “incapable of binding to the receptors of Ang2”. The physiological activity result in data set [1] is on record as “exhibits no physiological activity”.

For the substance angiotensin 2, the “fatal outcome on introduction into the body” value in data set [2] was “leads to a fatal outcome”. Moreover, in data set [1], the physiological activity entry is on record as “exhibit physiological activity”.
